# Measured values reported in patent publication US20210069295A1, “GALECTINS CONTROL MTOR IN RESPONSE TO ENDOMEMBRANE DAMAGE AND PROVIDE A MECHANISM AND TARGET FOR THE TREATMENT OF AUTOPHAGY-RELATED DISEASES” (STC. UNM, priority 2017, published 2021).
# Columns and labels:
# [1] = test system: Gal8 and Gal9; assay: Galectin puncta formation by high-content microscopy in HeLa cells; type: cell-based; conditions: HeLa cells overexpressing GFP-Gal8 or GFP-Gal9, 100 μM, 1 h full medium
# Procedure: (A) Analysis of the puncta formation of galectins in response to GPN. HeLa cells overexpressing YFP-fused with the indicated galectins were treated with 100 μM GPN or without (Ctrl) in full medium for 1 h and galectin puncta were quantified by HC. […] White masks, algorithm defined cell boundaries (primary objects); green masks, computer-identified galectins puncta (target objects). Data, means±SEM, n≥3 independent experiments (500 primary objects counted per well; ≥5 wells/sample per each experiment); *p<0.05, **p<0.01, † p≥0.05, ANOVA. (B) Immunoprecipitation analysis of the interactions between galectins and mTOR or RagA GTPase. HEK293T cells overexpressing FLAG-tagged galectins were subjected to anti-FLAG immunoprecipitation followed by immunoblotting for endogenous mTOR or RagA. (C) Immunoprecipitation analysis of interactions between Gal8 and mTOR protein complexes in response to GPN treatment. […] Biotinylated proteins from HEK293T cell expressing APEX2-vector or APEX2-Gal8, after GPN and biotin phenol (BP) treatment were affinity-enriched by binding to streptavidin-beads, and samples were analyzed by immunoblotting analysis for endogenous RagA, p14, mTOR or Raptor. […]
# (A) HC analysis of the puncta of galectins in response to chloroquine, Bafilomycin A1 and GPN. HeLa cells overexpressing GFP-Gal8 or GFP-Gal9 were treated with 100 μM chloroquine (CQ), […] (BAF) or 100 μM GPN in full medium for 1 h, and the puncta of GFP-Gal8 or GFP-Gal9 were quantified by HC. […] Data, means±SEM, n≥3 independent experiments (500 primary objects counted per well; ≥5 wells/sample per each experiment), † p≥0.05, **p<0.01, ANOVA. […] HeLa cells expressing GFP-Gal8 were treated with 100 μM GPN in full medium for 1 h, and the overlap between GFP-Gal8 and LAMP2 were quantified by HC. […] Data, means±SEM, n≥3 independent experiments (500 primary objects counted per well; ≥5 wells/sample per each experiment), **p<0.01, ANOVA. […]
# [2] = test system: AMPK; assay: AMPK activation by immunoblotting of phosphorylated AMPKα, ACC and ULK1 in HEK293A cells; type: cell-based; conditions: Gal9 KO HEK293A, 1 μM oligomycin 1 h
# [3] = test system: AMPKα; assay: Co-IP of FLAG-tagged galectins with endogenous AMPKα in HEK293T cells; type: binding; conditions: HEK293T overexpressing FLAG-tagged galectins
# [4] = test system: mTOR, Raptor, RagA, p14; assay: APEX2 proximity biotinylation with streptavidin enrichment and immunoblotting in HEK293T cells; type: cell-based; conditions: APEX2-galectin fusions
# Procedure: (A) Analysis of the puncta formation of galectins in response to GPN. HeLa cells overexpressing YFP-fused with the indicated galectins were treated with 100 μM GPN or without (Ctrl) in full medium for 1 h and galectin puncta were quantified by HC. […] White masks, algorithm defined cell boundaries (primary objects); green masks, computer-identified galectins puncta (target objects). Data, means±SEM, n≥3 independent experiments (500 primary objects counted per well; ≥5 wells/sample per each experiment); *p<0.05, **p<0.01, † p≥0.05, ANOVA. (B) Immunoprecipitation analysis of the interactions between galectins and mTOR or RagA GTPase. HEK293T cells overexpressing FLAG-tagged galectins were subjected to anti-FLAG immunoprecipitation followed by immunoblotting for endogenous mTOR or RagA. (C) Immunoprecipitation analysis of interactions between Gal8 and mTOR protein complexes in response to GPN treatment. THP-1 cells not treated or treated with 100 μM GPN in full medium for 1 h were subjected to immunoprecipitation with anti-Gal8 antibody, followed by immunoblotting for endogenous RagA, p14, mTOR or Raptor. (D) Analysis of the proximity of Gal8 to mTOR and other proteins in mTOR complexes in response to GPN. Biotinylated proteins from HEK293T cell expressing APEX2-vector or APEX2-Gal8, after GPN and biotin phenol (BP) treatment were affinity-enriched by binding to streptavidin-beads, and samples were analyzed by immunoblotting analysis for endogenous RagA, p14, mTOR or Raptor. Data, means±SEM, (n=3), **p<0.01, ANOVA. (E) Immunoprecipitation analysis of the interactions between Gal8 and RagA GTPase and its mutants. Lysates of HEK293T cells overexpressing FLAG-Gal8 and HA-tagged RagA proteins (RagAWT, RagAT21L or RagAQ66L) were subjected to anti-FLAG immunoprecipitation, followed by immunoblotting for HA-tagged RagA proteins. (F) Immunoprecipitation analysis of the interactions between Gal8 and RagC GTPase and its mutants. HEK293T cells overexpressing FLAG-Gal8 and HA-tagged RagC proteins (RagCWT, RagCS75L or RagCQ120L) lysates were subjected to anti-FLAG immunoprecipitation, followed by immunoblotting for HA-tagged RagC proteins.
# HEK293T cells transfected with pJJiaDEST-APEX2 or pJJiaDEST-APEX2-Gal8 were incubated with 100 μM GPN (Cayman Chemicals) in full medium for 1 h (confluence of cells remained at 70-80%). Cells were next incubated in 500 μM biotin-phenol (AdipoGen) in full medium for the last 30 min of GPN incubation. A 1 min pulse with 1 mM H2O2 at room temperature was stopped with quenching buffer (10 mM sodium ascorbate, 10 mM sodium azide and 5 mM Trolox in Dulbecco's Phosphate Buffered Saline (DPBS)). All samples were washed twice with quenching buffer, and twice with DPBS.
# For immunoblotting analysis, cell pellets were lysed with 500 μL ice-cold RIPA lysis buffer (ThermoFisher Scientific) with protease inhibitor cocktail (Roche), 1 mM PMSF (sigma), 10 mM sodium ascorbate, 10 mM sodium azide and 5 mM Trolox, gently pipetted and then the incubated for 30 min. The lysates were clarified by centrifugation at 13,000 rpm for 5 min, followed by measuring protein concentrations using a Pierce BCA Protein Assay kit, with freshly made bovine serum albumin (BSA) solutions as standards. Streptavidin-coated magnetic beads (ThermoFisher Scientific) were washed with RIPA lysis buffer. 3 mg of each sample was mixed with 100 μL of streptavidin beads. […] 15 μL of each sample was separated by SDS-PAGE and analyzed by Western blot using indicated antibodies.
# [5] = biological target: T1, TAK1 (Homo sapiens, UniProt O43318); assay: Co-IP of FLAG-tagged galectins with GFP-tagged TAK1 in HEK293T cells; type: binding; conditions: HEK293T overexpressing FLAG-tagged galectins and GFP-TAK1
# T1 sequence (O43318 1-606): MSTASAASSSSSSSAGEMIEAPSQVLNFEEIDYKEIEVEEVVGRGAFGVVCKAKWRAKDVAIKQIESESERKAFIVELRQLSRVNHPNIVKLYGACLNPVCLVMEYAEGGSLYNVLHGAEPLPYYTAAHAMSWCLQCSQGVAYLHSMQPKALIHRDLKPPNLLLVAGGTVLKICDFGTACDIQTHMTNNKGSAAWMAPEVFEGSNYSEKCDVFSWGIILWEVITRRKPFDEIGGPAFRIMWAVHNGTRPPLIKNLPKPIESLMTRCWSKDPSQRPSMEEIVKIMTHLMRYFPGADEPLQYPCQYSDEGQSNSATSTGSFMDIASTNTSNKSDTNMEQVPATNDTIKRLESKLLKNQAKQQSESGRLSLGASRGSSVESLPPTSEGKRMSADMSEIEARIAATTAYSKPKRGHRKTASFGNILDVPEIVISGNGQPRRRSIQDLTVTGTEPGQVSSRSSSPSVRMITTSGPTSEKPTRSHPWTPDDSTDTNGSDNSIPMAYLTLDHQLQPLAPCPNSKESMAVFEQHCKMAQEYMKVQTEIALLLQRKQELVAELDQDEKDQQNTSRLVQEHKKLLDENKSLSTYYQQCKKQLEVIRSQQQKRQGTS
# Procedure: (A) Analysis of the activation of AMPK in wildtype (WT) and the complementation of Gal9 in Gal9-knockout (Gal9KO) HEK293A cells treated with 100 μM GPN in full medium for 1 h. AMPK activity was monitored by immunoblotting analysis of AMPKα (T172) and acetyl-CoA carboxylase (ACC, S79) phosphorylation (phosphorylated AMPKα (T172) and ACC (S79) relative to total AMPKα and ACC respectively). (B) HEK293T cells transfected with scrambled siRNA (Scr) or Gal9 siRNA (Gal9KD) were treated with 2 mM LLOMe in full medium for 1 h, and the cell lysates were analyzed for phosphorylation of indicated proteins. Data, means±SEM, n=3, *p<0.05, ANOVA. (C) HEK293T cells overexpressing FLAG-Gal9 were treated with 2 mM LLOMe in full medium for 1 h. Cell lysates were analyzed for the indicated proteins. Data, means±SEM, n=3, *p<0.05, ANOVA. (D) Immunoprecipitation analysis of the interactions between galectins and TAK1. HEK293T cells overexpressing FLAG-tagged galectins and GFP-tagged TAK1 were subjected to anti-FLAG immunoprecipitation followed by immunoblotting for GFP-tagged TAK1. (E) Schematic diagram of Gal9 domains and deletion constructs. (F) HEK293T cells overexpressing FLAG-tagged full-length or truncated Gal9 and GFPAMPK were subjected to anti-FLAG immunoprecipitation, followed by immunoblotting for GFP-AMPK. (G) HEK293T cells overexpressing FLAG-tagged full-length or truncated Gal9 and GFP-TAK1 were subjected to anti-FLAG immunoprecipitation, followed by immunoblotting for GFP-TAK1. (H) Analysis of the activation of AMPK in HEK293T cells subjected to knockdowns as indicated treated with 100 μM GPN in full medium for 1 h. AMPK activity was monitored by immunoblotting analysis of AMPKα (T172) and acetyl-CoA carboxylase (ACC, S79) phosphorylation (phosphorylated AMPKα (T172) and ACC (S79) relative to total AMPKα and ACC respectively). Cells transfected with scrambled siRNA were as control (Scr). […]
compound,measurement,setting,value
"CO/C1=C\C(C)=C\[C@@H](C)[C@@H](O)[C@@H](C)C/C(C)=C/C=C/[C@H](OC)[C@@H]([C@@H](C)[C@@H](O)[C@H](C)[C@@]2(O)C[C@@H](O)[C@H](C)[C@@H](C(C)C)O2)OC1=O [Bafilomycin A 1, Bafilomycin A1]",Gal8 and Gal9 puncta formation,[1],not upon treatment
CCN(CC)CCCC(C)Nc1ccnc2cc(Cl)ccc12 (stereo not drawn) [chloroquine],Gal8 and Gal9 puncta formation,[1],not upon treatment
CC[C@H]1/C=C/C=C/C[C@@H](C)[C@H](O)[C@@](C)(O)C(=O)[C@@H](C)[C@H](O)[C@@H](C)C(=O)[C@@H](C)[C@H](O)[C@@H](C)/C=C/C(=O)O[C@@H]2[C@H](C)[C@H](CC1)O[C@]1(CC[C@H](C)[C@H](C[C@@H](C)O)O1)[C@H]2C [oligomycin],AMPK phosphorylation in Gal9 KO cells,[2],increased AMPK phosphorylation
"Gal3: cytosolic lectin, galectin-3, used as comparator",AMPKα in complexes (co-IP) with galectin,[3],not detected
same,"mTOR, Raptor and RagA found in the proximity of the galectin",[4],not in the proximity
same,interaction with TAK1,[5],not
